Experimental data published in the supplement of paper PMC11061612.

Tests used:
Assay in all cases: Bliss excess, mean over the matrix (fraction); higher = more synergy
[1] = system: YT (Other Blood Carcinomas)
Summary of the method: (§1)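 After 24 hours at 37°C and 5% CO2 in 1536-well plates, cells in DMEM/F12 or RPMI plus 10% FBS received two-drug dose matrices for 72 hours. Viability came from CellTiter-Glo 2.0 luminescence and was scaled as inhibition, anchored at 0 by vehicle wells and at 1 by blank wells. Combination Emax is taken as the second-highest inhibition in the matrix, and Bliss excess as the observed combination effect less EA + EB − EA·EB, with EA and EB the single-agent effects.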

[2] = system: JHH-6 (Hepatocellular Carcinoma)
Summary of the method: as §1

[3] = system: SK-UT-1 (Other Solid Carcinomas)
Summary of the method: as §1

[4] = system: A172 (Glioblastoma)
Summary of the method: as §1

[5] = system: U-118-MG (Low Grade Glioma)
Summary of the method: as §1

[6] = system: HCT-116 (Colorectal Carcinoma)
Summary of the method: as §1

[7] = system: EKVX (Non-Small Cell Lung Carcinoma)
Summary of the method: as §1

[8] = system: SLVL (B-Cell Non-Hodgkin's Lymphoma)
Summary of the method: as §1

[9] = system: HOP-92 (Non-Small Cell Lung Carcinoma)
Summary of the method: as §1

[10] = system: WSU-DLCL2 (B-Cell Non-Hodgkin's Lymphoma)
Summary of the method: as §1

[11] = system: MEG-01 (Chronic Myelogenous Leukemia)
Summary of the method: as §1

[12] = system: DOK (Oral Cavity Carcinoma)
Summary of the method: as §1

[13] = system: GDM-1 (Acute Myeloid Leukemia)
Summary of the method: as §1

[14] = system: EFM-192A (Breast Carcinoma)
Summary of the method: as §1

[15] = system: CAL-39 (Other Solid Carcinomas)
Summary of the method: as §1

[16] = system: SK-MEL-1 (Melanoma)
Summary of the method: as §1

[17] = system: PA-TU-8902 (Pancreatic Carcinoma)
Summary of the method: as §1

[18] = system: EW-22 (Ewing's Sarcoma)
Summary of the method: as §1

[19] = system: ETK-1 (Biliary Tract Carcinoma)
Summary of the method: as §1

[20] = system: BICR78 (Oral Cavity Carcinoma)
Summary of the method: as §1

Row | SMILES | Bliss excess [1] | Bliss excess [2] | Bliss excess [3] | Bliss excess [4] | Bliss excess [5] | Bliss excess [6] | Bliss excess [7] | Bliss excess [8] | Bliss excess [9] | Bliss excess [10] | Bliss excess [11] | Bliss excess [12] | Bliss excess [13] | Bliss excess [14] | Bliss excess [15] | Bliss excess [16] | Bliss excess [17] | Bliss excess [18] | Bliss excess [19] | Bliss excess [20]
1 | CN(C)CCCOc1ccc(-c2ccc3ncc4c(c3c2)n(C2CCOCC2)c(=O)n4C)cn1 [AZD0156] + C=CCn1c(=O)c2cnc(Nc3ccc(N4CCN(C)CC4)cc3)nc2n1-c1cccc(C(C)(C)O)n1 [AZD1775] (first compound max 1 µM, partner max 1 µM) | -0.0273 | -0.0798 | -0.0346 | -0.0431 | -0.0322 | -0.0016 | -0.0358 | -0.0203 | -0.0522 | -0.0119 | 0.0032 | -0.0143 | -0.0566 | -0.0567 | -0.0326 | 0.0161 | -0.0339 | 0.006 | -0.0096 | -0.0107
2 | CN(C)CCCOc1ccc(-c2ccc3ncc4c(c3c2)n(C2CCOCC2)c(=O)n4C)cn1 [AZD0156] + CCN(CCO)CCCOc1ccc2c(Nc3cc(CC(=O)Nc4cccc(F)c4)[nH]n3)ncnc2c1 [AZD2811] (first compound max 1 µM, 7x7, partner max 1 µM) | 0.0041 | -0.0083 | 0.0253 | 0.0239 | 0.0017 | 0.0233 | -0.0473 | -0.0768 | 0.0242 | 0.0362 | -0.0347 | -0.0527 | -0.0232 | -0.0243 | 0.0177 | -0.0356 | -0.0223 | 0.005 | -0.0087 | -0.047
3 | C=CCn1c(=O)c2cnc(Nc3ccc(N4CCN(C)CC4)cc3)nc2n1-c1cccc(C(C)(C)O)n1 [AZD1775] + C[C@@H]1COCCN1C2=NC(=NC(=C2)C3(CC3)[S@](=N)(=O)C)C4=C5C=CNC5=NC=C4 [AZD6738] (first compound max 1 µM, partner max 10 µM) | 0.0305 | -0.0073 | 0.0498 | 0.0433 | -0.0075 | 0.0252 | -0.0087 | -0.0105 | -0.0231 | 0.0763 | -0.0005 | 0.0081 | 0.0041 | -0.0053 | 0.0822 | -0.0125 | 0.0315 | -0.0218 | 0.0427 | 
4 | CN(CCO)CC[C@H](CSc1ccccc1)Nc1ccc(S(=O)(=O)NC(=O)c2ccc(N3CCC([C@@H](O)c4ccccc4-c4ccc(Cl)cc4)CC3)cc2)cc1S(=O)(=O)C(F)(F)F [AZD4320] + CCN(CCO)CCCOc1ccc2c(Nc3cc(CC(=O)Nc4cccc(F)c4)[nH]n3)ncnc2c1 [AZD2811] (first compound max 1 µM, 7x7, partner max 1 µM) | -0.0344 | 0.0044 | 0.0705 | 0.0322 | -0.0148 | 0.108 | -0.0476 | 0.135 | 0.0573 | 0.201 | -0.0205 | 0.0043 | 0.0067 |  | 0.0236 | -0.0353 | -0.0403 | 0.0467 | -0.0297 | -0.0008
5 | CN(CCO)CC[C@H](CSc1ccccc1)Nc1ccc(S(=O)(=O)NC(=O)c2ccc(N3CCC([C@@H](O)c4ccccc4-c4ccc(Cl)cc4)CC3)cc2)cc1S(=O)(=O)C(F)(F)F [AZD4320] + Cn1cnc2c(F)c(Nc3ccc(Br)cc3Cl)c(C(=O)NOCCO)cc21 [Selumetinib] (first compound max 1 µM, 7x7, partner max 3 µM) | -0.0834 | 0.0455 |  | -0.0071 | -0.0149 | -0.0232 | 0.0109 | -0.401 | -0.0341 | 0.0155 | 0.0005 | -0.0003 | 0.0223 |  | 0.0039 | 0.0228 | 0.0696 | 0.0011 | 0.0502 | 0.0362
6 | Cc1c2c(nn1C)CSCc1cc(n(C)n1)CSc1cc(c3ccccc3c1)OCCCc1c(C(=O)O)n(C)c3c-2c(Cl)ccc13 [AZD5991] + C[C@@H]1COCCN1C2=NC(=NC(=C2)C3(CC3)[S@](=N)(=O)C)C4=C5C=CNC5=NC=C4 [AZD6738] (first compound max 1 µM, 7x7, partner max 10 µM) | -0.0498 | -0.079 | -0.0115 | -0.0012 | 0.0187 | 0.0475 | 0.0337 | 0.031 | 0.0003 | 0.0004 | -0.0227 |  | 0.0863 | 0.0335 | -0.0411 | -0.0255 | 0.0111 | 0.0236 | 0.0015 | -0.0327
7 | Cc1c2c(nn1C)CSCc1cc(n(C)n1)CSc1cc(c3ccccc3c1)OCCCc1c(C(=O)O)n(C)c3c-2c(Cl)ccc13 [AZD5991] + Cc1cc2ncnn2cc1Nc1ncc2c(n1)n(C1CCOCC1)c(=O)n2C [AZD7648] (first compound max 1 µM, 7x7, partner max 10 µM) | 0.0305 | -0.0622 | -0.0252 | -0.0426 | -0.0098 | 0.013 | -0.069 | 0.0016 | -0.0332 | -0.0422 | -0.0157 | 0.0115 | -0.0295 | -0.0394 | -0.0466 | -0.0152 |  | -0.041 | -0.0466 | -0.0172
8 | C[C@@H]1COCCN1c1cc(C2([S@](C)(=N)=O)CC2)nc(-c2ccnc3[nH]ccc23)n1 [AZD6738] + O=C(c1cc(Cc2n[nH]c(=O)c3ccccc23)ccc1F)N1CCN(C(=O)C2CC2)CC1 [Olaparib] (first compound max 10 µM, 7x7, partner max 10 µM) | -0.0376 | -0.0039 | 0.0408 | -0.0398 | 0.0125 | 0.0928 | 0.0206 | -0.0355 | 0.0158 | -0.0119 | -0.0458 | 0.0048 | -0.0135 | 0.0387 |  | -0.0012 | -0.0251 | 0.02 | 0.0197 | -0.0431
9 | CCc1c2c(nc3ccc(O)cc13)-c1cc3c(c(=O)n1C2)COC(=O)[C@]3(O)CC [SN-38] + O=C(c1cc(Cc2n[nH]c(=O)c3ccccc23)ccc1F)N1CCN(C(=O)C2CC2)CC1 [Olaparib] (first compound max 0.3 µM, 7x7, partner max 10 µM) | -0.0409 | 0.032 | 0.057 | 0.0639 |  | 0.104 | 0.0027 | 0.0327 |  | 0.0564 | 0.026 | 0.0284 |  |  | 0.081 | 0.0387 | 0.086 | 0.0213 | 0.0825 | 0.0587
10 | C[C@@H](c1ccc2nccn2c1)n1nnc2ncc(-c3cnn(C)c3)nc21 [Savolitinib] + CC1(C)CCC(CN2CCN(c3ccc(C(=O)NS(=O)(=O)c4ccc(NCC5CCOCC5)c([N+](=O)[O-])c4)c(Oc4cnc5[nH]ccc5c4)c3)CC2)=C(c2ccc(Cl)cc2)C1 [Venetoclax] (first compound max 1 µM, 7x7, partner max 1 µM) | -0.0346 | -0.0918 | -0.0234 | -0.0498 | -0.0416 | -0.0357 |  | -0.0904 | -0.0181 | 0.113 | -0.0223 | -0.0578 | -0.0236 | -0.0484 | -0.0687 | -0.0144 | -0.11 | -0.0281 | -0.0777 | -0.0779
11 | C[C@@H](c1ccc2nccn2c1)n1nnc2ncc(-c3cnn(C)c3)nc21 [Savolitinib] + Cc1c2c(nn1C)CSCc1cc(n(C)n1)CSc1cc(c3ccccc3c1)OCCCc1c(C(=O)O)n(C)c3c-2c(Cl)ccc13 [AZD5991] (first compound max 1 µM, 7x7, partner max 1 µM) | -0.0156 | -0.0727 | 0.0093 | -0.0747 | 0.0095 | -0.0593 |  | -0.0946 | -0.0338 | 0.0276 | -0.0308 | -0.0681 | -0.0004 | -0.0499 | -0.0722 | -0.0235 | -0.0699 | -0.0595 | -0.0544 | -0.0214
12 | Cn1cnc2c(F)c(Nc3ccc(Br)cc3Cl)c(C(=O)NOCCO)cc21 [Selumetinib] + C=CCn1c(=O)c2cnc(Nc3ccc(N4CCN(C)CC4)cc3)nc2n1-c1cccc(C(C)(C)O)n1 [AZD1775] (first compound max 10 µM, partner max 1 µM) | 0.0002 | -0.0963 | -0.0042 | -0.126 | -0.061 | -0.0286 |  | -0.0275 | -0.056 | -0.0064 | 0.0437 | 0.0043 | -0.0254 | -0.0509 | 0.0116 | 0.0121 | 0.0655 | -0.0632 | -0.0128 | -0.0678
13 | Cn1cnc2c(F)c(Nc3ccc(Br)cc3Cl)c(C(=O)NOCCO)cc21 [Selumetinib] + CC(C)n1c(=O)n(C)c2cnc3cc(F)c(-c4ccc(OCCCN5CCCCC5)nc4)cc3c21 [AZD1390] (first compound max 10 µM, 7x7, partner max 0.3 µM) | -0.03 | -0.0769 | -0.0066 | -0.0389 | -0.0587 | -0.0129 |  | -0.0557 | -0.0112 | -0.003 | 0.0034 | 0.021 | -0.0523 | -0.0325 | 0.0025 | -0.0378 | 0.0043 | -0.0304 | -0.0432 | 0.0116
14 | Cn1cnc2c(F)c(Nc3ccc(Br)cc3Cl)c(C(=O)NOCCO)cc21 [Selumetinib] + CCN(CCO)CCCOc1ccc2c(Nc3cc(CC(=O)Nc4cccc(F)c4)[nH]n3)ncnc2c1 [AZD2811] (first compound max 10 µM, 7x7, partner max 1 µM) | -0.0336 | -0.0305 | 0.0021 | -0.0731 | -0.027 | 0.0289 |  | -0.0465 | -0.0193 | -0.0019 | -0.0001 | -0.0864 | -0.0345 | -0.0285 | -0.0688 | 0.0031 | 0.0087 | -0.0426 | -0.0222 | 0.0275
15 | Cn1cnc2c(F)c(Nc3ccc(Br)cc3Cl)c(C(=O)NOCCO)cc21 [Selumetinib] + C[C@@H]1COCCN1C2=NC(=NC(=C2)C3(CC3)[S@](=N)(=O)C)C4=C5C=CNC5=NC=C4 [AZD6738] (first compound max 10 µM, 7x7, partner max 10 µM) | -0.064 | -0.0064 | -0.0511 | -0.0564 | 0.0263 | -0.0093 |  | -0.107 | -0.0029 | -0.0228 | 0.0135 | 0.0628 | 0.0409 | -0.0365 | -0.0152 | -0.0312 | 0.0428 | -0.028 | -0.036 | -0.001
